Measurements reported in patent publication US20240294885A1, “ENGINEERED ENZYMES AND METHODS OF MAKING AND USING” (priority 2021, published 2024).

Tests used:
Format in all cases: biochemical
[1] = target: T1, Mycobacterium avium CAR (SEQ ID NO:153) Variant 1 of Table 14, K275D N276S F278S A283C I300G N335D (Mycobacterium avium, UniProt A0ACD7BNV2, A283C/F278S/G391S/I300G/K275D/N276S/N335D); test: CAR lysate assay with 30 mM 6ACA ± 0.25M HMD (Table 14), CAR Variant 1; conditions: CAR Variant 1, Table 14, 6ACA
[2] = target: T1, Mycobacterium avium CAR (SEQ ID NO:153) Variant 1 of Table 14, K275D N276S F278S A283C I300G N335D; test: CAR lysate assay with 10 mM 6ACA ± 125 mM HMD or 0.25M HMD (Table 15), CAR Variant 1
[3] = target: Mycobacterium avium CAR (SEQ ID NO:153) Variant 1 of Table 14 (K275D N276S F278S A283C I300G N335D), Variant 4 S274P (Mycobacterium avium, UniProt A0ACD7BNV2, A283C/F278S/G391S/I300G/K275D/N276S/N335D/S274P); test: CAR lysate assay with 30 mM 6ACA ± 0.25M HMD (Table 14), Variant 4; conditions: Variant 4, Table 14, 6ACA
[4] = target: Mycobacterium avium CAR (SEQ ID NO:153) Variant 1 of Table 14 (K275D N276S F278S A283C I300G N335D), Variant 12 M296H (Mycobacterium avium, UniProt A0ACD7BNV2, A283C/F278S/G391S/I300G/K275D/M296H/N276S/N335D); test: CAR lysate assay with 30 mM 6ACA ± 0.25M HMD (Table 14), Variant 12; conditions: Variant 12, Table 14, 6ACA
[5] = target: Mycobacterium avium CAR (SEQ ID NO:153) Variant 1 of Table 14 (K275D N276S F278S A283C I300G N335D), Variant 33 A282P M296A F425L (Mycobacterium avium, UniProt A0ACD7BNV2, A282P/A283C/F278S/F425L/G391S/I300G/K275D/M296A/N276S/N335D); test: CAR lysate assay with 30 mM 6ACA ± 0.25M HMD (Table 14), Variant 33; conditions: Variant 33, Table 14, 6ACA
[6] = target: Mycobacterium avium CAR (SEQ ID NO:153) Variant 1 of Table 14 (K275D N276S F278S A283C I300G N335D), Variant 34 A282P M296A F425T (Mycobacterium avium, UniProt A0ACD7BNV2, A282P/A283C/F278S/F425T/G391S/I300G/K275D/M296A/N276S/N335D); test: CAR lysate assay with 30 mM 6ACA ± 0.25M HMD (Table 14), Variant 34; conditions: Variant 34, Table 14, 6ACA
[7] = target: Mycobacterium avium CAR (SEQ ID NO:153) Variant 1 of Table 14 (K275D N276S F278S A283C I300G N335D), Variant 35 A282P M296A M389S F425N (Mycobacterium avium, UniProt A0ACD7BNV2, A282P/A283C/F278S/F425N/G391S/I300G/K275D/M296A/M389S/N276S/N335D); test: CAR lysate assay with 30 mM 6ACA ± 0.25M HMD (Table 14), Variant 35; conditions: Variant 35, Table 14, 6ACA
[8] = target: Mycobacterium avium CAR (SEQ ID NO:153) Variant 1 of Table 14 (K275D N276S F278S A283C I300G N335D), Variant 36 A282P M296A M389S N401T F425L (Mycobacterium avium, UniProt A0ACD7BNV2, A282P/A283C/F278S/F425L/G391S/I300G/K275D/M296A/M389S/N276S/N335D/N401T); test: CAR lysate assay with 30 mM 6ACA ± 0.25M HMD (Table 14), Variant 36; conditions: Variant 36, Table 14, 6ACA
[9] = target: Mycobacterium avium CAR (SEQ ID NO:153) Variant 1 of Table 14 (K275D N276S F278S A283C I300G N335D), Variant 37 A282P M296A M389S N401T F425N (Mycobacterium avium, UniProt A0ACD7BNV2, A282P/A283C/F278S/F425N/G391S/I300G/K275D/M296A/M389S/N276S/N335D/N401T); test: CAR lysate assay with 30 mM 6ACA ± 0.25M HMD (Table 14), Variant 37; conditions: Variant 37, Table 14, 6ACA
[10] = target: Mycobacterium avium CAR (SEQ ID NO:153) Variant 1 of Table 14 (K275D N276S F278S A283C I300G N335D), Variant 38 A282P M296A N401T F425L (Mycobacterium avium, UniProt A0ACD7BNV2, A282P/A283C/F278S/F425L/G391S/I300G/K275D/M296A/N276S/N335D/N401T); test: CAR lysate assay with 30 mM 6ACA ± 0.25M HMD (Table 14), Variant 38; conditions: Variant 38, Table 14, 6ACA
[11] = tested on: carboxylic acid reductase (CAR); conditions: 6ACA as substrate, 30 mM or 10 mM; HMD 125 mM or 0.25M

Structure (SMILES)	Vmax [1]	Vmax ([2]; CAR Variant 1, Table 15, 6ACA)	Vmax [3]	Vmax [4]	Vmax [5]	Vmax [6]	Vmax [7]	Vmax [8]	Vmax [9]	Vmax [10]	inhibition of CAR in the presence of HMD [11]	% inhibition @ 0.25M HMD & 10 mM 6ACA ([2]; CAR Variant 1, 0.25M HMD, 10 mM 6ACA)
NCCCCCC(=O)O [6ACA]	+++ (>10.0)	+++ (>10.0)	+++ (>10.0)	+++ (>10.0)	+ (<5)	+ (<5)	++ (5.0-10.0)	++ (5.0-10.0)	++ (5.0-10.0)	++ (5.0-10.0)		
NCCCCCCN [HMD, hexamethylenediamine, reference compound]											inhibited	++ (60-90)
